One compound from paper PMC8900595 (Journal of medicinal chemistry, 2021) can be followed below.

The test system of the assay is H1N1 A/WSN/1933 virus. The class given is cell-based, influenza A virus.

Each structure is given as a SMILES string.

As to `CCN(c1ccccc1C)S(=O)(=O)c1cc(Cl)ccc1Cl` [compound 1, 2,5-dichloro-N-ethyl-N-(o-tolyl)-benzenesulfonamide], the “concentration required for maximum virus inhibition (three logs) while maintaining enough virus production for passages” value was determined as 0.5 μM.
